Experimental data from patent US12043612B2, “Methods of manufacturing a bifunctional compound, ultrapure forms of the bifunctional compound, and dosage forms comprising the same” (Arvinas Operations, Inc., priority 2020, dated 2024).

Legend:
[1] = Metabolite in liver microsomes and hepatocytes; assay type: in vitro ADME; conditions: male human, monkey, dog, rat, and mouse liver microsomes and hepatocytes
[2] = Metabolite in female mouse liver microsomes; assay type: in vitro ADME
[3] = Rat pharmacokinetic studies with solutions and spray-dried dispersions; conditions: male, rat, in vivo, po, 150 mg/kg
[4] = 90-minute non-sink dissolution, pH 2 HCl shifted to pH 6.5 SIF; assay type: physicochemical; conditions: 1 mg/mL in pH 2 HCl, shift to pH 6.5 SIF at 30 minutes
Experimental: FIG. 11 is a series of line graphs showing the dissolution of crystalline vs. amorphous Compound A API. API (1 mg/mL) is present in gastric conditions (pH=2), which is 2× diluted with FaSSIF at 30 minutes to increase the pH to 6.5. (API=active pharmaceutical ingredient; FaSSIF=fasted state simulated intestinal fluid.)
FIG. 12 is a series of line graphs showing the non-sink dissolution of spray-dried amorphous Compound A produced at multiple scales. API (500 μg/mL) is present in gastric conditions (pH=2), which is 2× Diluted with FaSSIF at 30 minutes to increase the pH to 6.5.
A 90-minute non-sink dissolution experiment was conducted in which a Compound A suspension was introduced into pH 2 HCl at a final concentration of 1 mg/mL, which was then periodically sampled and prepared for analysis via centrifugation. A shift to pH 6.5 SIF was carried out 30 minutes into the experiment.

[5] = Glass transition and recrystallization temperature of amorphous solids; assay type: physicochemical
Experimental: Thus, while crystals of Compound A are quite stable, there is a significant barrier to transforming to a crystalline state from an amorphous form. Indeed, a ramped temperature increase of a partially-crystalline sample does eventually lead to a recrystallization event, but not until a temperature of 200-220° C. is achieved. […] As discussed below, this robust resistance to crystallization is preserved even in the presence of water.
The amorphous form of pure Compound A is robust with a high Tg and even higher recrystallization temperature. The glass transition temperature does decrease under the plasticizing conditions of high humidity. However, the value is still well above the commonly applied 40-50° C. difference between Tg and any temperature the clinical presentation will encounter.

[6] = Membrane flux experiment (donor/receiver compartments, SIF bile salts); conditions: amorphous suspension as donor compartment contents
Experimental: A membrane flux experiment was conducted in which a fixed amount of compound was introduced into the donor compartment at various concentrations of the SIF bile salts, and appearance of drug was monitored on the receiver side.

[7] = Stability of amorphous Compound A (spray-dried intermediate); assay type: physicochemical
Experimental: The stability of amorphous Compound A was assessed at three stability conditions: 2-8° C.; 25° C./60% RH; and 40° C./75% RH for a period of 12 months.
During stability testing, amorphous Compound A was stored in wire-tied low-density polyethylene bags placed in heat-induction sealed, high-density polyethylene (HDPE) bottles containing a desiccant canister, and capped with polypropylene-lined closures.

[8] = after 6 months of storage at 2-8° C.
[9] = after 12 months at 25° C./60% RH
[10] = after 12 months at 40° C./75% RH

With `N#Cc1ccc(O[C@H]2CC[C@H](NC(=O)c3ccc(N4CCC(C(=O)O)CC4)nn3)CC2)cc1Cl` [Impurity 1] the occurrence as metabolite [1] was “A process impurity resulting from over oxidation of Intermediate 2 in Step 2. This impurity is also a metabolite in male human, monkey, dog, rat, and mouse liver microsomes and hepatocytes”.

For `N#Cc1ccc(O[C@H]2CC[C@H](NC(=O)c3ccc(N4CCC(CO)CC4)nn3)CC2)cc1Cl` [Intermediate 2, N-((1r,4r)-4-(3-chloro-4-cyanophenoxy)cyclohexyl)-6-(4-(hydroxymethyl)piperidin-1-yl)pyridazine-3-carboxamide], the occurrence as metabolite [2] was “A process impurity in Intermediate 3 and can be formed as a by-product of the reductive amination in Step 3. This impurity is also a metabolite in female mouse liver microsomes”.

With `N#Cc1ccc(O[C@H]2CC[C@H](NC(=O)c3ccc(N4CCC(CN5CCN(c6cc7c(cc6F)C(=O)N(C6CCC(=O)NC6=O)C7=O)CC5)CC4)nn3)CC2)cc1Cl` (some centres unmarked) [Spray-Dried Amorphous Compound A] the AUC [3] was 19400 ng·h/mL, the “non-sink dissolution, amorphous vs crystalline (FIG. 11)” value [4] was “Higher concentrations are achieved in the gastric phase of the experiment and sustained in the intestinal phase” and the “Glass Transition Temperature” value ([5]; Temperature/RH 25/0 (° C./%)) was 146 °C. The “Glass Transition Temperature” value ([5]; Temperature/RH 40/75 (° C./%)) was 103 °C, the “Flux (μg-min^−1-cm^−2)” value [6] was 0.15 μg-min^−1-cm^−2 and the purity [7, 8] was 95.7%. For the same compound, the “water (major impurity)” value [7, 8] was 0.9%, the purity [7, 9] was 97.7% and the “water (major impurity)” value [7, 9] was 1.62%. The purity [7, 10] was 98%, the “water (major impurity), Karl Fischer titration” value [7, 10] was 2.16% and the “recrystallization of the amorphous form” value ([7]; all three storage conditions, any time during the studies) was “no evidence of recrystallization”.
